Data taken from patent publication US20190298740A1, “METHODS AND COMPOSITIONS FOR TREATING HALLUCINATIONS AND CONDITIONS RELATED TO THE SAME” (Enterin, Inc., priority 2018, published 2019).
Entries after “also recorded” stand apart in the source; their conditions may differ.

How the values were obtained:
[1] = Aminosterol-induced response after a single oral dose; assay type: in vivo; details: single 200 mg oral dose
[2] = cited from earlier work
[3] = test system: PD related hallucinations; details: cited from earlier work
[4] = cited from earlier work; remark: listed apart in the source
[5] = cited from earlier work; remark: listed apart in the source
[6] = test system: Parkinson's disease patient with hallucinations; test: Case reports: oral squalamine in PD patients with hallucinations (Examples 1-3); assay type: in vivo, human
Description: MV1, a person with a 13-year history of PD had been suffering from daily visual hallucinations for 5 years. MV1 reported that the hallucinations occurred at night. MV1 was aware that the apparitions were unreal, and they were fully awake when they occurred. The hallucinations consisted mostly of faceless dead relatives who came into their bedroom, sat on their bed, or in a chair, or walked around. […] Sometimes MV1 would shout at the hallucinations to go away and the hallucinations would disappear. MV1 also had tactile hallucinations, causing MV1 to feel that insects such as cockroaches were climbing up their legs. They would bend down and attempt to brush them off their feet and legs. MV1 also had tactile hallucinations of the hands “as if someone was picking at them”. They were not treated with any antipsychotic medication and they didn't take any sleeping pills or sedatives. They also suffered from REM-behavior disorder (RBD), and had thrashing of arms and legs during their sleep. Their spouse had moved out of the bed several years prior because of the thrashing, screaming and hallucinations.
The patient was started on 75 mg squalamine daily. […] They were also sleeping better. […] Subsequently, the dose was increased to 175 mg, and maintained at 175 mg per day for another week or two, before discontinued. […]
NY1, a person with a 5-year history of PD suffered from daily hallucinations. The hallucinations had been occurring for a number of years. The hallucinations occurred any time of day or night.
NY1 was started on squalamine 75 mg daily and then escalated to 100 mg daily. […] They were maintained at 125 mg per day for about a week, after which medication was discontinued. NY1 remained hallucination-free for 9 days following discontinuation.
The patient, a person with a 10-year history of Parkinson's Disease suffered from frequent hallucinations. The hallucinations would occur at night and consist of people roaming around in their bedroom, such as a young person sitting on their bed, or a priest standing by the bed. They were fully awake and aware that the visions were unreal. They also suffered from fragmented sleep and REM-behavior disorder (RBD).
BC was started on a squalamine dose of 75 mg daily, which was increased to a daily dose of 175 mg that was maintained for a 3-month period. […] They described the hallucinations as cooks with white top hats and cleaners in blue uniforms. […] Upon discontinuing the medication, the hallucinations returned. This cycle of stopping and resuming squalamine treatment was repeated three times, and the hallucinations abated every time the squalamine treatment was resumed and hallucinations came back every time squalamine treatment was stopped. A portion of their sleep diary is shown below in Table 2.

CC(C)[C@@H](CC[C@@H](C)[C@H]1CC[C@H]2[C@@H]3[C@H](O)C[C@H]4C[C@@H](NCCCNCCCCNCCCN)CC[C@]4(C)[C@H]3CC[C@]12C)OS(=O)(=O)O [Aminosterol 1436]
Duration of the aminosterol-induced response [1]: about 4 days
Weight loss ([2]; administered parenterally to dogs and rodents): capable of inducing weight loss
Anorectic activity ([2]; delivered orally): no anorectic activity

CC(C)COc1ccc(CNC(=O)N(Cc2ccc(F)cc2)C2CCN(C)CC2)cc1 [Pimavanserin]
Improvement over placebo on the SCAD-PD questionnaire ([3]; PD related hallucinations): 3 point
Increased mortality (black box warning) ([3]; label): 11%

CC(C)[C@@H](CC[C@@H](C)[C@H]1CC[C@H]2[C@@H]3[C@H](O)C[C@H]4C[C@@H](NCCCNCCCCN)CC[C@]4(C)[C@H]3CC[C@]12C)OS(=O)(=O)O.C[C@H](O)C(=O)O.C[C@H](O)C(=O)O [squalamine dilactate salt]
Solubility in water [4]: highly water soluble
Oral bioavailability ([5]; preliminary studies): poorly bioavailable orally
Absorption ([5]; rodents, subcutaneous and intraperitoneal routes): well absorbed

CC(C)[C@@H](CC[C@@H](C)[C@H]1CC[C@H]2[C@@H]3[C@H](O)C[C@H]4C[C@@H](NCCCNCCCCN)CC[C@]4(C)[C@H]3CC[C@]12C)OS(=O)(=O)O [squalamine]
Time hallucination-free following discontinuation, patient NY1 ([6]; after 125 mg per day for about a week): 9 days
Time hallucination-free after discontinuation, patient MV1 ([6]; after 175 mg per day): 30 days
Hallucinations, patient ([6]; after stopping squalamine administration): vivid hallucinations returned; also recorded: Apparitions back with a vengeance; also recorded: Apparitions, cooks in tall hats; also recorded: Apparitions, cleaning crew in blue uniforms; also recorded: Apparitions, severely disturbed sleep
Hallucination frequency, patient NY1 ([6]; oral, 100 mg daily, daily hallucinations before): no more than once or twice a week
Sleep and RBD, patient MV1 ([6]; oral, 125 mg daily): continued to improve
Hallucinations, patient NY1 ([6]; oral, 125 mg per day): disappeared altogether
Hallucinations, patient ([6]; oral, 175 mg daily for 3 months): no hallucinations
Hallucinations, patient MV1 ([6]; oral, daily dose increased to 125 mg): disappeared completely
Hallucinations, patient MV1 ([6]; oral, dose increased from 75 mg daily): hallucinating less frequently
Hallucinations, patient ([6]; squalamine restarted at 125 mg daily): hallucinations vanished; also recorded: No hallucinations since last entry; also recorded: No hallucinations since restarting
Duration of the aminosterol-induced response [1]: about 4 days
